Assay results as given in patent publication US20260209270A1, “Synthetic Peptide And Construct” (TOAGOSEI CO., LTD., priority 2022, published 2026).
FAM = 5(6)-carboxyfluorescein

Tested on: NSC-34 cells
Assay: Evaluation of cell membrane permeability by flow cytometry (MFI of FAM fluorescence)
Type: cell-based, mouse
Conditions: for MFI: NSC-34 cells; for value of MFI compared with Reference Example 1 (FAM alone): 20 μM
Procedure: As a culture medium of the NSC-34 cell, 10% fetal bovine serum (FBS)-containing Dulbecco's modified Eagle's medium (DMEM (Cat No. 044-29765, manufactured by FUJIFILM Wako Pure Chemical Corporation)) was used. The samples 1 to 6 were each dissolved in dimethyl sulfoxide (DMSO) to prepare sample solutions 1 to 6 with a sample concentration of 4 mM. Then, the sample solutions were diluted in the culture medium to prepare 40 μM sample solutions 1 to 6.
The NSC-34 cell was suspended in the culture medium to prepare a cell suspension of 2×10^5 cells/mL. The cell suspension was added by 1 mL to a well of a commercially available six-hole (well) plate (manufactured by AGC TECHNO GLASS Co., Ltd.) so as to seed the NSC-34 cell to be 2× 10^5 cells/well. […] After that, the six-well plate was left at rest in a cell culture apparatus, and incubated for 20 hours at 37° C. under a 5% CO2 condition.
After the 20-hour incubation, the culture supernatant was removed from the well and the cells in the well were cleaned twice with 1 mL of PBS. Next, 100 μL of the 0.25% trypsin/EDTA solution was added to the well and the incubation was performed for three minutes at 37° C. After the incubation, 900 μL of the culture medium was added to the well to deactivate the trypsin. Subsequently, the cell suspension in the well was transferred to a tube and the cells were collected. This tube was subjected to five-minute centrifugal separation at 4° C. under a condition of 210×g. After the centrifugal separation, the supernatant was removed and the precipitate (cell pellet) was suspended (cleaned) with 1 mL of PBS, which was followed by the centrifugal separation under the same condition as that described above. After this operation was repeated twice, the supernatant was removed and thus, the cells (cell pellet) cultured in the culture medium containing the sample 1 were obtained.
Regarding the obtained cells (cell pellet), the cell membrane permeability of the sample 1 was analyzed using a flow cytometer. As the flow cytometer, On-Chip Flowcytometer (manufactured by On-Chip Biotechnologies Co., LTD.) was used.
For such an analysis, the obtained cell pellet was suspended with 100 μL of on-chip T buffer to prepare a cell suspension for analysis.
Using the aforementioned flow cytometer, gating based on forward scatter (FSC) and side scatter (SSC) was performed to set a gate about a cell group to be analyzed, and the fluorescence intensity was measured about the cell group in this gate. Note that the number of cells of the cell group was set to at least 10000 or more in the analysis. The fluorescence intensity was measured using a fluorescence detector FL2 of the flow cytometer (optimum detection wavelength around 543 nm) capable of detecting the fluorescence wavelength of FAM. Regarding this measurement result, the analysis was performed using commercially available analysis software “FlowJo” (manufactured by TreeStar) to obtain mean fluorescence intensity (MFI) of the cell group to be measured. […]

[1] = Test 1, sample/FAM concentration 20 μM in culture medium, 20 hours incubation at 37° C., detector FL2
[2] = Test 2, sample/FAM concentration 25 μM in culture medium, otherwise similar to Test 1

Row | Substance | MFI [1] | MFI [2] | value of MFI compared with Reference Example 1 (FAM alone) (Test 1)
1 | 5(6)-carboxyfluorescein [Reference Example 1, reference compound] | 10.9 | 13.1 | –
2 | Ac-PD-FAM [Example 5] | 7.8 | – | lower
3 | Ac-PDPD-FAM [Example 1] | 15 | – | –
4 | Ac-PDPDPDPDPDPDG-FAM (Ac-PDPDPDPDPDPDG-{FAM}) [Example 7, construct: N-terminally acetylated peptide 7 bonded to FAM] | – | 27.5 | –
5 | Ac-PDPEG-FAM [Example 3] | 18.9 | – | –
6 | Ac-PDPEPDPEPDPEG-FAM (Ac-PDPEPDPEPDPEG-{FAM}) [Example 9, construct: N-terminally acetylated peptide 9 bonded to FAM] | – | 25.1 | –
7 | Ac-PE-FAM [Example 6] | 7.4 | – | lower
8 | Ac-PEPDG-FAM [Example 4] | 19.9 | – | –
9 | Ac-PEPE-FAM [Example 2] | 16.2 | – | –
10 | Ac-PEPEPEPEPEPEG-FAM (Ac-PEPEPEPEPEPEG-{FAM}) [Example 8, construct: N-terminally acetylated peptide 8 bonded to FAM] | – | 29.3 | –
